Test results as given in patent US8105993B2, “Process compositions and production of acyl alkylisethionate compositions” (Huntsman Petrochemical LLC, priority 2006, dated 2012).

Legend:
Zein = Zein irritation score (in vitro mildness); details: the lower the score, the more mild
Description: To evaluate the mildness of the products of the present invention, Zein scores were determined for a variety of sulfate and isethionate surfactants and their scores are reported in Table III:
The lower the Zein score, the more mild the composition.

[1] = levels of 10% by weight; cited from earlier work
[2] = Foaming test, one-liter capped rotating measuring cylinder foam machine; assay type: physicochemical; details: FIGS. 1A and 1B; 0.5% active of surfactant; compared with SLES or SLS based cleansers
Description: Foaming tests were performed using a one-liter capped rotating measuring cylinder foam machine at a rate of 30 revolutions per minute and ambient temperature ranging from about 20° C. to about 22° C. and at a concentration of 0.5% of total surfactants. Foam heights in the graduated cylinder were measured at the start and at 10 minutes of rotation. The results are shown below in Table I:
A second foaming test was performed using the same parameters as above, but a stripped coco fatty acid chain SCMI was tested in place of a whole coco fatty acid chain SCMI.

CCCCCCCCCCCC(=O)OC(C)CS(=O)(=O)[O-].[Na+] (centres unmarked) [Sodium Lauroyl Methyl Isethionate]
Zein Score (Zein): 134 mg N/100 ml solution

CCCCCCCCCCCCOS(=O)(=O)[O-].[Na+] [Sodium Lauryl Sulfate, sodium lauryl sulfate, reference compound]
Zein Score (Zein): 527 mg N/100 ml solution

Sodium Cocoyl Ethyl Isethionate
Zein Score (Zein): 104 mg N/100 ml solution

Sodium Lauroyl Ethyl Isethionate
Zein Score (Zein): 187 mg N/100 ml solution

sodium cocoyl isethionate [reference compound]
Zein Score (Zein): 254 mg N/100 ml solution
skin and eye irritancy [1]: non-skin irritant and eye irritant

sodium cocoyl methyl isethionate
foam appearance [2]: tighter and creamier
Zein Score (Zein): 147 mg N/100 ml solution
